Here are results for 14 compounds from patent US6511961B1, “Cyclic peptides and medicinal use thereof” (Toray Industries, Inc., priority 1997, dated 2003).

The nature of one series: Stability in mouse serum. The format is in vitro ADME.
The target of series [1] is VLA-4-IgG chimeric protein (Homo sapiens, UniProt P05556+P13612). As to the kind of experiment: Inhibition of binding of CS-1 peptide and VLA-4-IgG chimeric protein. To be noted: binding of immobilized CS-1 peptide and VLA-4-IgG chimeric protein, absorbance at 490 nm. An excerpt:
As the method for investigating the adhesion inhibiting activity in terms of VLA-4, there can be used an adhesion measuring system for cells such as Ramos cells and Jurkat cells, and fibronectin or a fibronectin fragment, for example a peptide consisting of the CS-1 sequence (Gly Pro Glu Ile Leu Asp Val Pro Ser Thr SEQ ID NO:59) [hereinafter referred to as the CS-1 peptide], immobilized on an immunoplate. Furthermore, as another method, there can be used a binding measurement system for VLA-4 protein and fibronectin or a fibronectin fragment, for example the CS-1 peptide, immobilized on an immunoplate or the like. In the present invention, it is preferred that the inhibiting activity of a compound be evaluated in a binding measurement system for a VLA-4 and immunoglobulin chimeric protein (VLA-4-IgG chimeric protein) and a peptide containing the CS-1 sequence (WO98/032771), but there is no restriction thereto. Reference here to VLA-4-IgG chimeric protein means a heterodimer complex molecule formed when a VLA-4 α4 and immunoglobulin chimeric protein (referred to hereinafter as the VLAα4.IgG chimeric protein) and a VLA-4 β1 and immunoglobulin chimeric protein (referred to hereinafter as the VLAβ1.IgG chimeric protein) undergo association. Moreover, for the immunoglobulin, there can be used heavy or light chains of IgG, IgM or the like, and in the present invention IgG1 heavy chains were used. When observing the cyclic peptide inhibition effect, it is best to use a previously prepared mixture of the α4.IgG heavy chain-β1.IgG heavy chain chimeric protein heterodimer complex and the test material.
Cyclic peptide inhibiting effect in terms of the binding of CS-1 peptide and VLA-4-IgG chimeric protein.
A conjugate of the peptide containing the CS-1 sequence shown in SEQ ID NO:57 and rabbit IgG (Sigma) was prepared in accordance with the literature (Humphries, M. J. et al, J. Biol. Chem., 262, 6886-6892 (1987)). This was diluted with PBS(−), and 100 μl/well quantities introduced into a 96 well immunoplate (NUNC), after which this was left to stand for 16 hours at 4° C. and the CS-1 peptide immobilized.
Gys Lue His Gly Pro Glu Ile Leu Asp Val Pro Ser Thr (SEQ ID NO:57)
Next, after washing the interior of the wells twice with PBS(−), 300 μl/well quantities of 1% BSA-PBS solution which had been heat treated for 10 minutes at 80° C. were introduced, then left for 3 hours at 4° C., after which the solution inside the wells was removed by suction.
Each cyclic peptide and VLA-4-IgG chimeric protein (100 μl) were reacted together beforehand for 20 minutes at room temperature, and then reaction carried out for 3 hours at 30° C. with the CS-1 peptide. Subsequently, the non-bonded VLA-4-IgG chimeric protein was removed by suction, and washed away twice with TBS buffer (150 mM NaCl, 25 mM Tris-HCl, 1 mM MnCl2 pH 7.4) containing 0.1% BSA. To the bonded VLA-4-IgG chimeric protein, biotin labelled anti-human IgG antibody (Vector) as the first antibody was added, and then avidin labelled horseradish peroxidase (Sigma) was added as the second antibody and reaction carried out. Following the reaction, o-phenylenediamine was added as a substrate and colour development effected, and then the absorbance measured at 490 nm. From this absorbance, the binding inhibition activity due to the respective peptides was determined.

The conditions of series [2]: 20-membered ring.
The mark [3] stands for this setting: amide bond, with chain assembly.

Where two headings read alike, the source gives them in different places. Bridge positions count the residues as written; N and C are the ends. Square brackets hold non-standard residues; d marks the D form. Peptide text beside a SMILES is read from it. 2Nal = N[C@@H](Cc1ccc2ccccc2c1)C(=O)O; Met(O2) = CS(=O)(=O)CC[C@H](N)C(=O)O; 2Pal = N[C@@H](Cc1ccccn1)C(=O)O; Tic = O=C(O)[C@@H]1Cc2ccccc2CN1; Chg = N[C@H](C(=O)O)C1CCCCC1

Chain of VLA-4-IgG chimeric protein (P13612 34-1032, change not shown): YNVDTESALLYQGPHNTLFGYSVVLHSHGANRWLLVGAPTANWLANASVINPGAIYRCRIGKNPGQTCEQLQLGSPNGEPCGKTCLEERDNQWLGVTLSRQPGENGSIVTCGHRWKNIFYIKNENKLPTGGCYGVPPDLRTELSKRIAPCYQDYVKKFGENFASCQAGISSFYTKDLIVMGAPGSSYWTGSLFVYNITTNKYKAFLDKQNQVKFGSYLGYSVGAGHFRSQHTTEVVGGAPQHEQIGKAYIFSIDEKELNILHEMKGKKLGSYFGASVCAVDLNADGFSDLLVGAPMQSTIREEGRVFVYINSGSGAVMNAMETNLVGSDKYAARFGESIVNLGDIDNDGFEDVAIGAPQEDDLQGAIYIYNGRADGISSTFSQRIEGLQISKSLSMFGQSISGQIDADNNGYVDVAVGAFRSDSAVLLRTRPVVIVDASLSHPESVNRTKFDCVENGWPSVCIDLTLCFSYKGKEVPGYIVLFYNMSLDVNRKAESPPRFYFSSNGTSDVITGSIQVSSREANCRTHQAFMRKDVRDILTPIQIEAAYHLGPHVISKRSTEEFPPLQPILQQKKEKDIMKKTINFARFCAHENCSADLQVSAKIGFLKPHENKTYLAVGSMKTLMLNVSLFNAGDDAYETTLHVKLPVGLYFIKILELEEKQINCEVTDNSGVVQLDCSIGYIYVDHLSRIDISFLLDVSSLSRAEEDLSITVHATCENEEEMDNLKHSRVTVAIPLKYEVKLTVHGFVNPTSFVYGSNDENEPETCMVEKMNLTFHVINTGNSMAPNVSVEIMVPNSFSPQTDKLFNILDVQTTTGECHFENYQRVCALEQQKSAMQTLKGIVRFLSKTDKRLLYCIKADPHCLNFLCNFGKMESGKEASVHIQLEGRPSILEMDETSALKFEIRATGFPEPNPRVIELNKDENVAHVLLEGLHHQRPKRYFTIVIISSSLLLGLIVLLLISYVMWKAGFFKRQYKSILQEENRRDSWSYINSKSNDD
Chain of VLA-4-IgG chimeric protein (P05556 21-798, change not shown): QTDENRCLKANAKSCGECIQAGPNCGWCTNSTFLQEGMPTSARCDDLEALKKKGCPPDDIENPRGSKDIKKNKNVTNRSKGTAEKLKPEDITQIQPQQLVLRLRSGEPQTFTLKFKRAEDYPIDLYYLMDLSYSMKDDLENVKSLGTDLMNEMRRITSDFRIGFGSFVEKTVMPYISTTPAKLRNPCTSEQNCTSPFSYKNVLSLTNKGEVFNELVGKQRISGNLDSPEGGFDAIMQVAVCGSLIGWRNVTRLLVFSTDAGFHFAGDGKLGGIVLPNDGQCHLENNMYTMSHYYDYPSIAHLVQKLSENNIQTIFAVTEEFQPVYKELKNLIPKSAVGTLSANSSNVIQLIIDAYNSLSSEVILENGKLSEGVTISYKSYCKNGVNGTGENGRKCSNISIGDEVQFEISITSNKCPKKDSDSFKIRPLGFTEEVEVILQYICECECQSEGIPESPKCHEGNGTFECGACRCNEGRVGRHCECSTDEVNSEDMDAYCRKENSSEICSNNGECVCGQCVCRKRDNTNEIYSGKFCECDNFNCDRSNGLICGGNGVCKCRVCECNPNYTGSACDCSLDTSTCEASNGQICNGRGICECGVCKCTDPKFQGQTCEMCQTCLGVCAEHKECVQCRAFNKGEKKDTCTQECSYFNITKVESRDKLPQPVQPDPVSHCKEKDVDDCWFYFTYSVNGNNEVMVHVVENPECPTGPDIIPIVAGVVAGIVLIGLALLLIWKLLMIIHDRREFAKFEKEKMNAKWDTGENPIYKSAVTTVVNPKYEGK

For the compound `CC[C@H](C)[C@@H]1NC(=O)[C@@H](N)CSSC[C@@H](C(=O)O)NC(=O)[C@H](CC(C)C)NC(=O)[C@H](Cc2c[nH]cn2)NC(=O)[C@H](CCS(C)(=O)=O)NC1=O` [Sequence Number 17, C*IMet(O2)HLC*] (H-CI[Met(O2)]HLC-OH; disulfide 1-6; N-terminus and C-terminus assumed), the “stability in mouse serum” value in the series “Stability in mouse serum” was “stable for 24 hours”. For `CC[C@H](C)[C@@H]1NC(=O)[C@@H](N)CSSC[C@@H](C(=O)O)NC(=O)[C@H](CC(C)C)NC(=O)[C@H](Cc2c[nH]cn2)NC(=O)[C@H](CC(=O)O)NC1=O` [compound 4] (H-CIDHLC-OH; disulfide 1-6), the IC50 in series [1] is 1200 nM.

The compound `CC[C@H](C)[C@@H]1NC(=O)[C@@H](N)CSSC[C@@H](C(=O)O)NC(=O)[C@H](CC(C)C)NC(=O)[C@H](Cc2c[nH]cn2)NC(=O)[C@H](CCC(=O)O)NC1=O` [compound 9] (H-CIEHLC-OH; disulfide 1-6) registered a half-inhibitory concentration (IC50) in series [1] of 1600 nM. On to `CC[C@H](C)[C@@H]1NC(=O)[C@@H](N)CSSC[C@@H](C(=O)O)NC(=O)[C@H](CC(C)C)NC(=O)[C@H](Cc2c[nH]cn2)NC(=O)[C@H](CCS(C)(=O)=O)NC1=O` [compound 17] (H-CI[Met(O2)]HLC-OH; disulfide 1-6), for which the IC50 in series [1] amounted to 800 nM. In series [1], `CC(C)C[C@@H]1NC(=O)[C@H](Cc2c[nH]cn2)NC(=O)[C@H](CC(=O)O)NC(=O)[C@H](C2CCCCC2)NC(=O)[C@@H](N)CSSC[C@@H](C(=O)O)NC1=O` [compound 22] (H-C[Chg]DHLC-OH; disulfide 1-6) returned an IC50 of 120 nM. `CC(C)C[C@@H]1NC(=O)[C@H](Cc2c[nH]cn2)NC(=O)[C@H](CC(=O)O)NC(=O)[C@@H]2Cc3ccccc3CN2C(=O)[C@@H](N)CSSC[C@@H](C(=O)O)NC1=O` [compound 25] (H-C[Tic]DHLC-OH; disulfide 1-6) displayed an IC50 in series [1] of 650 nM. Consider `CC[C@H](C)[C@@H]1NC(=O)[C@@H](N)CSSC[C@@H](C(=O)O)NC(=O)[C@H](CC(C)C)NC(=O)[C@H](Cc2ccccn2)NC(=O)[C@H](CC(=O)O)NC1=O` [compound 29] (H-CID[2Pal]LC-OH; disulfide 1-6), for which, in series [1], the IC50 was 500 nM.

With `CC[C@H](C)[C@@H]1NC(=O)[C@@H](N)CSSC[C@@H](C(=O)O)NC(=O)[C@H](CC(C)C)NC(=O)[C@H](Cc2c[nH]c3ccccc23)NC(=O)[C@H](CC(=O)O)NC1=O` [compound 31] (H-CIDWLC-OH; disulfide 1-6), the IC50 in series [1] was determined as 450 nM.

Compound `CC[C@H](C)[C@@H]1NC(=O)[C@@H](N)CSSC[C@@H](C(=O)O)NC(=O)[C@H](CC(C)C)NC(=O)[C@H](Cc2ccc3ccccc3c2)NC(=O)[C@H](CC(=O)O)NC1=O` [compound 34] (H-CID[2Nal]LC-OH; disulfide 1-6; N-terminus and C-terminus assumed) showed an IC50 in series [1] of 600 nM. The same measure, in the same setting: the same measure for `CC[C@H](C)[C@@H]1NC(=O)[C@H](Cc2ccccc2)NC(=O)[C@H](CC(=O)O)NC(=O)[C@H]([C@@H](C)CC)NC(=O)[C@@H](N)CSSC[C@@H](C(=O)O)NC1=O` [compound 48] (H-CIDFIC-OH; disulfide 1-6): 250 nM. Regarding C*IDTLC*, in series [2] (disulfide bond, K3[Fe(CN)6]/NH3 pH 7.5-8, water), the ring closure, yield after HPLC amounted to 70%.

In series [2] (disulfide bond, K3[Fe(CN)6]/NH3 pH 7.5-8, water, 0.43 mM), C*IDYLC* showed a ring closure, yield after HPLC of 61%. Consider D(CO—)ChgMet(O2)PhgLDpr(NH—), for which the ring closure, yield after HPLC in series [2] (setting [3]) was 7%. In series [2] (setting [3]), D(CO—)ChgMet(O2)dPhgLDpr(NH—) had a ring closure, yield after HPLC of 10%.

In general, IC50 refers to the concentration at which inhibition is half-maximal. High values mean weaker potency, low ones greater potency.
